Test results from patent US20050197350A1, “Novel quinoline, tetrahydroquinazoline, and pyrimidine derivatives and methods of treatment related to the use thereof” (TAISHO PHARMACEUTICAL CO., LTD., priority 2003, published 2005).

System: MCH receptors
Experiment: MCH receptor activity class (method not given)
Settings: MCH receptor activity class 1-3 (percent of control at 10^-7 M or IC50)

| Structure (SMILES) | class |
| --- | --- |
| Cc1cc(C)c(NC(=O)NC[C@H]2CC[C@@H](Nc3nc4c(c(N(C)C)n3)CCCC4)CC2)c(C)c1 [compound 2459] | 1 (Class 1: The value of percent of control at 10^−7 M was less than 40% or the value of IC50 was less than 50 nM.) |
| Cc1c(NC(=O)NC[C@H]2CC[C@@H](Nc3cc(N(C)C)c4ccccc4n3)CC2)cccc1[N+](=O)[O-] [compound 2381, N-[(cis-4-{[4-(dimethylamino)quinolin-2-yl]amino}cyclohexyl)methyl]-N′-(2-methyl-3-nitrophenyl)urea] | 2 (Class 2: The value of percent of control at 10^−7 M was from 40% to 60% or the value of IC′50 was from 50 nM to 200 nM.) |

Same assay, conditions: MCH receptor; class by percent of control at 10^-7 M or IC50

| Structure (SMILES) | class |
| --- | --- |
| CN(C)c1nc(N[C@H]2CC[C@@H](NC(=S)Nc3ccc(Cl)c(C(F)(F)F)c3)CC2)nc2c1CCCC2 [compound 1992] | 3 (Class 3 The value of percent of control at 10^−7 M was more than 60% or the value of IC50 was more than 200 nM.) |
| CN(C)c1cc(N[C@H]2CC[C@@H](NC(=O)Cc3cccs3)CC2)nc2ccccc12 [compound 53] | 3 (Class 3 The value of percent of control at 10^−7 M was more than 60% or the value of IC50 was more than 200 nM.) |
| CN(C)c1cc(N[C@H]2CC[C@@H](CNC(=O)c3ccc4nonc4c3)CC2)nc2ccccc12 [compound 150, N-[(cis-4-{[4-(dimethylamino)quinolin-2-yl]amino}cyclohexyl)methyl]-2,1,3-benzoxadiazole-5-carboxamide] | 3 (Class 3 The value of percent of control at 10^−7 M was more than 60% or the value of IC50 was more than 200 nM.) |

Same assay, conditions: activity class 1-3: percent of control at 10^-7 M or IC50

| Structure (SMILES) | class |
| --- | --- |
| CN(C)c1ccnc(N[C@H]2CC[C@@H](CNCCCOc3ccccc3)CC2)n1 [compound 1532] | 3 (Class 3 The value of percent of control at 10^−7 M was more than 60% or the value of IC50 was more than 200 nM.) |
| CN(C)c1cc(N[C@H]2CC[C@@H](NC(=O)Oc3ccc4ccccc4c3)CC2)nc2ccccc12 [compound 1549] | 3 (Class 3 The value of percent of control at 10^−7 M was more than 60% or the value of IC50 was more than 200 nM.) |
| Cc1noc(-c2ccccc2)c1NC(=O)N[C@H]1CC[C@@H](Nc2nc3c(c(N(C)C)n2)CCCC3)CC1 [compound 1691] | 1 (Class 1: The value of percent of control at 10^−7 M was less than 40% or the value of IC50 was less than 50 nM.) |

Same assay, conditions: activity class per percent of control at 10^-7 M or IC50

| Structure (SMILES) | class |
| --- | --- |
| Cc1cc(C(=O)N[C@H]2CC[C@@H](Nc3nc4c(c(N(C)C)n3)CCCC4)CC2)cc(C)c1[N+](=O)[O-] [compound 1050] | 3 (Class 3 The value of percent of control at 10^−7 M was more than 60% or the value of IC50 was more than 200 nM.) |
| CN(C)c1cc(N[C@H]2CC[C@@H](NCc3c[nH]c4ccccc34)CC2)nc2ccccc12 [compound 1087] | 3 (Class 3 The value of percent of control at 10^−7 M was more than 60% or the value of IC50 was more than 200 nM.) |
| CN(C)c1nc(N[C@H]2CC[C@@H](NC(=O)c3ccccc3CCc3ccccc3)CC2)nc2c1CCCC2 [compound 1008] | 3 (Class 3 The value of percent of control at 10^−7 M was more than 60% or the value of IC50 was more than 200 nM.) |

Same assay, conditions: class 1-3 by percent of control at 10^-7 M or IC50

| Structure (SMILES) | class |
| --- | --- |
| CN(C)c1nc(N[C@H]2CC[C@@H](NC(=O)Cc3ccc(Cl)cc3)CC2)nc2c1CCCC2 [compound 464, 2-(4-chlorophenyl)-N-(cis-4-{[4-(dimethylamino)-5,6,7,8-tetrahydroquinazolin-2-yl]amino}cyclohexyl)acetainide] | 1 (Class 1: The value of percent of control at 10^−7 M was less than 40% or the value of IC50 was less than 50 nM.) |
| CN(C)c1nc(N[C@H]2CC[C@@H](NC(=O)c3cccc(Br)c3)CC2)nc2c1CCCC2 [compound 457] | 1 (Class 1: The value of percent of control at 10^−7 M was less than 40% or the value of IC50 was less than 50 nM.) |
| COc1cc(OC)cc(C(=O)N[C@H]2CC[C@@H](Nc3nc4c(c(N(C)C)n3)CCCC4)CC2)c1 [compound 512] | 1 (Class 1: The value of percent of control at 10^−7 M was less than 40% or the value of IC50 was less than 50 nM.) |

Same assay, conditions: class by percent of control at 10^-7 M or IC50

| Structure (SMILES) | class |
| --- | --- |
| CCc1cccc(NC(=O)N[C@H]2CC[C@@H](Nc3nc4c(c(N(C)C)n3)CCCC4)CC2)c1 [compound 1871] | 3 (Class 3 The value of percent of control at 10^−7 M was more than 60% or the value of IC50 was more than 200 nM.) |
| CCOc1ccc(C(=O)CC(C(=O)NC[C@H]2CC[C@@H](Nc3cc(N(C)C)c4ccccc4n3)CC2)C2C(=O)N(c3ccccc3)N=C2C)cc1 (relative stereo) [compound 807] | 3 (Class 3 The value of percent of control at 10^−7 M was more than 60% or the value of IC50 was more than 200 nM.) |
| CN(C)c1cc(N[C@H]2CC[C@@H](CNCCCCc3ccc([N+](=O)[O-])cc3)CC2)nc2ccccc12 [compound 1480] | 3 (Class 3 The value of percent of control at 10^−7 M was more than 60% or the value of IC50 was more than 200 nM.) |
| Cc1cc(Br)ccc1NC(=O)N[C@H]1CC[C@@H](Nc2nc3c(c(N(C)C)n2)CCCC3)CC1 [compound 1729, N-(4-bromo-2-methylphenyl)-N′-(cis-4-{[4-(dimethylamino)-5,6,7,8-tetrahydroquinazolin-2-yl]amino}cyclohexyl)urea] | 2 (Class 2: The value of percent of control at 10^−7 M was from 40% to 60% or the value of IC′50 was from 50 nM to 200 nM.) |
| CN(C)c1ccnc(N[C@H]2CC[C@@H](CNC(=O)c3cccc(Cl)c3F)CC2)n1 [compound 404] | 3 (Class 3 The value of percent of control at 10^−7 M was more than 60% or the value of IC50 was more than 200 nM.) |
| CSc1sc(C(=O)N[C@H]2CC[C@@H](Nc3cc(N(C)C)c4ccccc4n3)CC2)c(I)c1S(=O)(=O)C(C)C [compound 766] | 3 (Class 3 The value of percent of control at 10^−7 M was more than 60% or the value of IC50 was more than 200 nM.) |
| CN(C)c1ccnc(N[C@H]2CC[C@@H](NC(=O)c3ccc(F)c(F)c3F)CC2)n1 [compound 342] | 3 (Class 3 The value of percent of control at 10^−7 M was more than 60% or the value of IC50 was more than 200 nM.) |
| CN(C)c1cc(N[C@H]2CC[C@@H](NC(=O)Nc3ccc4c(c3)OCCCO4)CC2)nc2ccccc12 [compound 2164] | 3 (Class 3 The value of percent of control at 10^−7 M was more than 60% or the value of IC50 was more than 200 nM.) |
| CN(C)c1cc(N[C@H]2CC[C@@H](CNC(=O)c3ccc([N+](=O)[O-])s3)CC2)nc2ccccc12 [compound 802, N-[(cis-4-{[4-(dimethylamino)quinolin-2-yl]amino}cyclohexyl)methyl]-5-nitrothiophene-2-carboxamide] | 3 (Class 3 The value of percent of control at 10^−7 M was more than 60% or the value of IC50 was more than 200 nM.) |
| Cc1ccccc1CNC[C@H]1CC[C@@H](Nc2cc(N(C)C)c3ccccc3n2)CC1 [compound 1185] | 3 (Class 3 The value of percent of control at 10^−7 M was more than 60% or the value of IC50 was more than 200 nM.) |
| C[C@H](CN[C@H]1CC[C@@H](Nc2cc(N(C)C)c3ccccc3n2)CC1)c1cccc(C(O)c2ccccc2)c1 (stereo partly drawn) [compound 1461] | 3 (Class 3 The value of percent of control at 10^−7 M was more than 60% or the value of IC50 was more than 200 nM.) |
| CN(C)c1ccnc(N[C@H]2CC[C@@H](NC(=O)C(c3ccccc3)c3ccccc3)CC2)n1 [compound 250, N-(cis-4-{[4-(dimethylamino)pyrimidin-2-yl]amino}cyclohexyl)-2,2-diphenylacetamide] | 2 (Class 2: The value of percent of control at 10^−7 M was from 40% to 60% or the value of IC′50 was from 50 nM to 200 nM.) |
| CN(C)c1cc(N[C@H]2CC[C@@H](NC(=O)C(CC(=O)c3ccc(C(C)(C)C)cc3)c3cn(C)c4ccccc34)CC2)nc2ccccc12 (relative stereo) [compound 721] | 3 (Class 3 The value of percent of control at 10^−7 M was more than 60% or the value of IC50 was more than 200 nM.) |
| Cc1cc(CN[C@H]2CC[C@@H](Nc3nccc(N(C)C)n3)CC2)c(C)n1-c1ccccc1 [compound 1230] | 3 (Class 3 The value of percent of control at 10^−7 M was more than 60% or the value of IC50 was more than 200 nM.) |
| CN(C)c1cc(N[C@H]2CC[C@@H](NC(=O)CCC(=O)c3ccc(F)cc3)CC2)nc2ccccc12 [compound 707] | 3 (Class 3 The value of percent of control at 10^−7 M was more than 60% or the value of IC50 was more than 200 nM.) |
| CN(C)c1ccnc(N[C@H]2CC[C@@H](NC(=O)c3cccnc3Sc3ccccc3)CC2)n1 [compound 354] | 3 (Class 3 The value of percent of control at 10^−7 M was more than 60% or the value of IC50 was more than 200 nM.) |
| Cc1c(C(=O)N[C@H]2CC[C@@H](Nc3cc(N(C)C)c4ccccc4n3)CC2)cc(-c2ccccc2)n1CCSCc1c(F)cccc1Cl [compound 752] | 3 (Class 3 The value of percent of control at 10^−7 M was more than 60% or the value of IC50 was more than 200 nM.) |
| CN(C)c1cc(N[C@H]2CC[C@@H](CNC(=O)c3cccc(Cl)c3Cl)CC2)nc2ccccc12 [compound 224] | 3 (Class 3 The value of percent of control at 10^−7 M was more than 60% or the value of IC50 was more than 200 nM.) |

Same assay, conditions: class by percent of control at 10^−7 M or IC50

| Structure (SMILES) | class |
| --- | --- |
| Cc1cccc(C(=O)N[C@H]2CC[C@@H](Nc3nc(C)cc(N(C)C)n3)CC2)c1 [compound 2983, N-(cis-4-{[4-(dimethylamino)-6-methylpyrimidin-2-yl]amino}cyclohexyl)-3-methylbenzamide] | 1 (Class 1: The value of percent of control at 10^−7 M was less than 40% or the value of IC50 was less than 50 nM.) |
| COc1ccc(C(=O)NC[C@H]2CC[C@@H](Nc3nc(C)cc(N(C)C)n3)CC2)cc1 [compound 2754] | 3 (Class 3 The value of percent of control at 10^−7 M was more than 60% or the value of IC50 was more than 200 nM.) |
| Cc1cnc(NC[C@H]2CC[C@@H](NC(=O)c3cccc(C(F)(F)F)c3)CC2)nc1N(C)C [compound 2719] | 3 (Class 3 The value of percent of control at 10^−7 M was more than 60% or the value of IC50 was more than 200 nM.) |
| Cc1cnc(N[C@H]2CC[C@@H](NC(=O)c3ccc4c(c3)OC(F)(F)O4)CC2)nc1N(C)C [compound 2926, N-(cis-4-{[4-(dimethylamino)-5-methylpyrimidin-2-yl]amino}cyclohexyl)-2,2-difluoro-1,3-benzodioxole-5-carboxamide] | 1 (Class 1: The value of percent of control at 10^−7 M was less than 40% or the value of IC50 was less than 50 nM.) |
